We go through 2 compounds from patent US8980933B2, “Combretastatin analogs for use in the treatment of cancer” (Universitat Bayreuth, priority 2010, dated 2015).

SMILES strings stand for the structures.

The subject of data set [1] is H12.1 germ cell tumor, 1411HP germ cell tumor, A2780 ovarian carcinoma, HT29 colon carcinoma, DLD1 colon carcinoma, HCT8 colon carcinoma. The experiment in a line: SRB-cytotoxicity assay in a panel of tumor cell lines. Format: cell-based, human. The conditions noted are these: H12.1, 1411HP. Here is the method:
The cytotoxic activity of 5b was established by standard colorimetric tests (SRB- and MTT-assays) against various tumor cell lines of different entities. For the SRB cytotoxicity assay, dose-response curves of the testicular germ cell tumor cell lines exposed to drug concentrations of 0.001-10 μM were established using the sulforhodamine-B (SRB) microcuiture colorimetric assay (Papazisis et al. Optimization of the sulforhodamine B colorimetric assay. J. Immunol. Methods 1997, 208, 151-158) and performed as described in: Müller et al. Failure of activation of caspase-9 induces a higher threshold for apoptosis and cisplatin resistance in testicular cancer. Cancer Res. 2003, 63, 513-521. Briefly, cells were seeded into 96-well plates on day 0, at cell densities previously determined to ensure exponential cell growth during the period of the experiment. On day 1, cells were treated with the drugs dissolved in medium to give the appropriate concentrations for indicated times and the percentage of surviving cells relative to untreated controls was determined on day 5.
The compounds 5b, 6b, 5f and 6f as well as the reference compound 25f (Wang et al.) were furthermore subjected to an SRB-cytotoxicity assay in a panel of tumor cell lines (H12.1 germ cell tumor, 1411HP germ cell tumor, A2780 ovarian carcinoma, HT29 colon carcinoma, DLD1 colon carcinoma, HCT8 colon carcinoma).

In data set [2] the test system is MCF-7/Topo breast carcinoma cells. The experiment in a line: MTT cell growth inhibition, MCF-7/Topo. The conditions noted are these: MCF-7/Topo (BCRP+). Format: cell-based, human. As for the experimental part:
The effects of the compounds 5b, 6b, 8a, and 8e according to the present invention and of the reference compound 25f (Wang et al., J. Med. Chem. 2002, 45, 1697-1711) on cells of the following human tumor cell lines were evaluated: 518A2 melanoma, HL-60 leukemia, HT-29 colon carcinoma, KB-V1/Vbl cervical carcinoma, and MCF-7/Topo breast carcinoma.
The HL-60 cells were obtained from the German Collection of Biological Material (DSMZ), Braunschweig, Germany; the human 518A2 melanoma cells as well as the testicular germ cell tumor cell lines H12.1 and 1411HP were cultured in the department of oncology and hematology, Medical Faculty of the Martin-Luther University, Halle, Germany; the KBV1/Vbl and the MCF-7/Topo cells were obtained from the Institute of Pharmacy of the University Regensburg, Germany; and the colon HT-29 cells from the University Hospital Erlangen, Germany. The HL-60 and the HT-29 cells were grown in RPMI-1640 medium supplemented with 10% fetal calf serum (FCS), 100 IU/mL penicillin G, 100 μg/mL streptomycin sulfate, 0.25 μg/mL amphotericin B and 250 μg/mL gentamycine (all from Gibco, Egenstein, Germany). The 518A2 and the KB-V1/Vbl cells were cultured in Dulbecco's Modified Eagle Medium (D-MEM, Gibco) containing 10% FCS, 100 IU/mL penicillin G, 100 μg/mL streptomycin sulfate, 0.25 μg/mL amphotericin B and 250 μg/mL gentamycine. The MCF-7/Topo cells were grown in E-MEM medium (Sigma) supplemented with 2.2 g/L NaHCO3, 110 mg/L sodium pyruvate and 5% FCS. The cells were maintained in a moisture-saturated atmosphere (5% CO2) at 37° C. in 75-mL culture flasks (Nunc, Wiesbaden, Germany). They were serially passaged following trypsinisation by 0.05% trypsin/0.02% EDTA (PAA laboratories, Clbe, Germany). Mycoplasma contamination was routinely monitored, and only mycoplasma-free cultures were used.
MTT [3-(4,5-dimethylthiazol-2-yl)-2,5-diphenyltetrazolium bromide](ABCR) was used to identify viable cells which reduce it to a violet formazan (Mosmann, J. Immunol. Methods 1983, 65, 55-63). HL-60 leukemia cells (5×10^5/mL), and cells (5×10^4/mL) of 518A2 melanoma, HT-29 colon, KB-V1/Vbl cervix and MCF-7/Topo breast carcinoma were seeded out in 96-well tissue culture plates and cultured for 24 h. Incubation (5% CO2, 95% humidity, 37° C.) of the cells following treatment with the test compounds was continued for 24, 48 or 72 h. Blank and solvent controls were treated identically. […] The microplates were gently shaken in the dark for 30 min and absorbance at 570 nm and 630 nm (background) was measured with an ELISA plate reader. All experiments were carried out in quadruplicate; the percentage of viable cells was calculated as the mean±SD with controls set to 100%.

The test system of data set [3] is vascular system of a fertilized chicken embryo. The experiment in a line: CAM assay. Format: in vivo. The conditions noted are these: 10 nmol applied on the embryonal vessels; up to three days. Here is the method: Compounds of the present invention were tested for anti-angiogenic and vasculature disrupting properties using the CAM assay. In this test the vascular system of a fertilized chicken embryo is used as a model (Wilting et al., Anat. Embryol. 1991, 183, 259-271).
Fertilized chicken eggs received from a nearby farm directly after laying have been incubated at a temperature of 36-38° C. and a relative humidity of 60%. During the growth the eggs have been held in an inclined position and turned from time to time in order to avoid an adherence to the shell. After four days each embryo was transferred into a cavity created by fixing a thin plastic foil on top of a cup and covered. This was done by opening the shell at the flat end where the air sac resides and letting the content slip out. There the growth continued for another 2-4 days until the first blood vessels became visible. Then 10 nmol of the substance to be tested (in 10 μL PBS with 1% DMF) have been applied directly on the embryonal vessels. As a reference PBS was used. Finally incubation continued for up to another three days (Dugan et al., Anat. Rec. 1991, 229, 125-128; Fisher, Tested studies for laboratory teaching 1993, 5, 105-115).

`COc1ccc(-c2c(-c3cc(Br)c(OC)c(OC)c3)ncn2C)cc1N` [compound 6b, 1-methyl-5-(3-amino-4-methoxyphenyl)-4-(3-bromo-4,5-dimethoxyphenyl)-imidazole]: in data set [1], the “in vitro cytotoxicity compared to 25f” value is “superior activity as compared to compound 25f”. Moreover, the “cytotoxicity / efficacy (comparison)” value in data set [2] is given as “noticeably less active but still superior to the known imidazole 25f”. In addition, the “effect on embryonal blood vessels” value in data set [3] is “leaving regular vasculature in chicken embryos (CAM assay) alone”.

For `COc1ccc(-c2c(-c3cc(Cl)c(OC)c(OC)c3)ncn2C)cc1N` [compound 5b, 1-methyl-5-(3-amino-4-methoxyphenyl)-4-(3-chloro-4,5-dimethoxyphenyl)-imidazole], in data set [1], the “in vitro cytotoxicity compared to 25f” value is listed as “superior activity as compared to compound 25f”. The “cytotoxicity / efficacy (comparison)” value in data set [2] is on record as “noticeably less active but still superior to the known imidazole 25f”. In data set [3], the “effect on embryonal blood vessels” value was “dramatic vessel shrinkage within 24 h after treatment and to a complete degradation of the vascular system within three days”.
